Experimental data from US11365196B2, “FGFR inhibitor and application thereof” (Betta Pharmaceuticals Co., Ltd., priority 2017, dated 2022).

These compounds were tested on NCI-H1581 cells (assay: Cell proliferation assay on NCI-H1581 (Table 7)). Conditions: Homo sapiens, NCI-H1581, read-out: IC50(nM) value of compounds on NCI-H1581 cells.
Type: cell-based, human
Excerpt: Test method: adding the appropriate volume of whole medium and the cells was suspended.
`CCN1CCC(c2ccc(Nc3ncc4cc(-c5cc6[nH]c(C)nc6cc5Cl)c5nncn5c4n3)cc2)CC1` [Compound 79, 6-(5-chloro-2-methyl-1H-benzo[d]imidazol-6-yl)-N-(4-(1-ethylpiperidin-4-yl)phenyl)-[1,2,4]triazolo[4′,3′:1,6]pyrido[2,3-d]pyrimidin-2-amine] gave an IC50 of 11.5 nM. In the case of `COc1cc(OC)c(Cl)c(-c2cc3cnc(Nc4ccc(OCCN5CCCC5)cc4)nc3n3cnnc23)c1` [Compound 28, 6-(2-chloro-3,5-dimethoxyphenyl)-N-(4-(2-(pyrrolidin-1-yl)ethoxy)phenyl)-[1,2,4]triazolo[4′,3′:1,6]pyrido[2,3-d]pyrimidin-2-amine], the IC50 is reported as 2.9 nM. `COc1cc(OC)c(Cl)c(-c2cc3cnc(Nc4ccc(C(=O)N5C[C@@H](C)N[C@@H](C)C5)cc4)nc3n3cnnc23)c1` [Compound 59, (4-((6-(2-chloro-3,5-dimethoxyphenyl)-[1,2,4]triazolo[4′,3′:1,6]pyrido[2,3-d]pyrimidin-2-yl)amino)phenyl)((3 S,5R)-3,5-dimethylpiperazin-1-yl)methanone] gave an IC50 of 1.8 nM. Compound `COc1cc(OC)c(Cl)c(-c2cc3cnc(Nc4ccc(N5CCN6CCC[C@H]6C5)cc4)nc3n3cnnc23)c1` [Compound 25, (S)-6-(2-chloro-3,5-dimethoxyphenyl)-N-(4-(hexahydropyrrolo[1,2-a]pyrazin-2(1H)-yl)phenyl)-[1,2,4]triazolo[4′,3′:1,6]pyrido[2,3-d]pyrimidin-2-amine] has an IC50 of 1 to 10 nM.

Same assay, conditions: Homo sapiens, NCI-H1581; CellTiter 96 AQueous (144 hrs) or CellTiter Glo (96 hrs); class symbols; read-out: IC50(nM) value of compounds on NCI-H1581 cells
Compound `CNc1ncc2cc(-c3c(Cl)c(OC)cc(OC)c3Cl)c3nc(CCCN4CCN(C(=O)C(C#N)=CC(C)(C)C)CC4)nn3c2n1` [Compound 148, 2-(4-(3-(4-(2,6-dichloro-3,5-dimethoxyphenyl)-8-(methylamino)-[1,2,4]triazolo[1′,5′:1,6]pyrido[2,3-d]pyrimidin-2-yl)propyl)piperazine-1-carbonyl)-4,4-dimethylpent-2-enenitrile] has an IC50 of over 100 nM. `COc1cc(OC)c(Cl)c(-c2cc3cnc(Nc4ccc(OCCN5CCOCC5)cc4)nc3n3cnnc23)c1` [Compound 33, 6-(2-chloro-3,5-dimethoxyphenyl)-N-(4-(2-morpholinoethoxy)phenyl)-[1,2,4]triazolo[4′,3′:1,6]pyrido[2,3-d]pyrimidin-2-amine] gave an IC50 of 1 to 10 nM. Compound `COc1cc(OC)c(Cl)c(-c2cc3cnc(Nc4ccc(N5C[C@@H](C)N[C@@H](C)C5)c(OC)c4)nc3n3cnnc23)c1` [Compound 55, 6-(2-chloro-3,5-dimethoxyphenyl)-N-(4-((3 S,5R)-3,5-dimethylpiperazin-1-yl)-3-methoxyphenyl)-[1,2,4]triazolo[4′,3′:1,6]pyrido[2,3-d]pyrimidin-2-amine] has an IC50 of 1 to 10 nM. Work on `Cc1nc2ccc(-c3cc4cnc(Nc5ccc(N6CCOCC6)cc5)nc4n4cnnc34)c(Cl)c2[nH]1` [Compound 83, 6-(7-chloro-2-methyl-1H-benzo[d]imidazol-6-yl)-N-(4-morpholinophenyl)-[1,2,4]triazolo[4′,3′:1,6]pyrido[2,3-d]pyrimidin-2-amine] yielded an IC50 of over 100 nM. `COc1cc(OC)c(Cl)c(-c2cc3cnc(Nc4ccc(N5CC(=O)N6CCC[C@@H]6C5)cc4)nc3n3cnnc23)c1` [Compound 40, (R)-2-(4-((6-(2-chloro-3,5-dimethoxyphenyl)-[1,2,4]triazolo[4′,3′:1,6]pyrido[2,3-d]pyrimidin-2-yl)amino)phenyl)hexahydropyrrolo[1,2-a]pyrazin-4(1H)-one] was tested, and the IC50 was over 100 nM. `C=CC(=O)N1C[C@@H](C)N(CCCc2nc3c(-c4c(Cl)c(OC)cc(OC)c4Cl)cc4cnc(NC)nc4n3n2)[C@@H](C)C1` [Compound 131, 1-((3S,5R)-4-(3-(4-(2,6-dichloro-3,5-dimethoxyphenyl)-8-(methylamino)-[1,2,4]triazolo[1′,5′:1,6]pyrido[2,3-d]pyrimidin-2-yl)propyl)-3,5-dimethylpiperazin-1-yl)prop-2-en-1-one] showed an IC50 of 10 to 100 nM. `C=CC(=O)N1CCN(CCc2nc3c(-c4c(Cl)c(OC)cc(OC)c4Cl)cc4cnc(NC)nc4n3n2)CC1` [Compound 124, 1-(4-(2-(4-(2,6-dichloro-3,5-dimethoxyphenyl)-8-(methylamino)-[1,2,4]triazolo[1′,5′:1,6]pyrido[2,3-d]pyrimidin-2-yl)ethyl)piperazin-1-yl)prop-2-en-1-one] gave an IC50 of 1 to 10 nM. Work on `C=CC(=O)N1CCN(Cc2nc3c(-c4cc(OC)cc(OC)c4Cl)cc4cnc(NC)nc4n3n2)CC1` [Compound 117, 1-(4-((4-(2-chloro-3,5-dimethoxyphenyl)-8-(methylamino)-[1,2,4]triazolo[1′,5′:1,6]pyrido[2,3-d]pyrimidin-2-yl)methyl)piperazin-1-yl)prop-2-en-1-one] yielded an IC50 of 10 to 100 nM. `COc1cc(OC)c(Cl)c(-c2cc3cnc(Nc4ccc(C(=O)N5C[C@@H](C)N[C@@H](C)C5)cc4)nc3n3cnnc23)c1Cl` [Compound 60, (4-((6-(2,6-dichloro-3,5-dimethoxyphenyl)-[1,2,4]triazolo[4′,3′:1,6]pyrido[2,3-d]pyrimidin-2-yl)amino)phenyl)((3S,5R)-3,5-dimethylpiperazin-1-yl)methanone] was tested, and the IC50 was under 1 nM. In the case of `COc1cc(OC)c(Cl)c(-c2cc3cnc(Nc4ccc(C5CCN(C)CC5)cc4)nc3n3cnnc23)c1` [Compound 37, 6-(2-chloro-3,5-dimethoxyphenyl)-N-(4-(1-methylpiperidin-4-yl)phenyl)-[1,2,4]triazolo[4′,3′:1,6]pyrido[2,3-d]pyrimidin-2-amine], the IC50 is reported as 1 to 10 nM. With `C=CC(=O)N1CCN(CCCc2nc3c(-c4c(Cl)c(OC)cc(OC)c4Cl)cc4cnc(NCC(F)(F)F)nc4n3n2)CC1` [Compound 137, 1-(4-(3-(4-(2,6-dichloro-3,5-dimethoxyphenyl)-8-((2,2,2-trifluoroethyl)amino)-[1,2,4]triazolo[1′,5′:1,6]pyrido[2,3-d]pyrimidin-2-yl)propyl)piperazin-1-yl)prop-2-en-1-one] the IC50 was 1 to 10 nM. Compound `COc1cc(OC)c(Cl)c(-c2cc3cnc(Nc4cccc(N5CCN6CCC[C@@H]6C5)c4)nc3n3cnnc23)c1` [Compound 38, (R)-6-(2-chloro-3,5-dimethoxyphenyl)-N-(3-(hexahydropyrrolo[1,2-a]pyrazin-2(1H)-yl)phenyl)-[1,2,4]triazolo[4′,3′:1,6]pyrido[2,3-d]pyrimidin-2-amine] has an IC50 of 1 to 10 nM. `COc1cc(OC)c(Cl)c(-c2cc3cnc(Nc4ccc(N5CCN(C6CCN(C)CC6)CC5)cc4)nc3n3cnnc23)c1` [Compound 22, 6-(2-chloro-3,5-dimethoxyphenyl)-N-(4-(4-(1-methylpiperidin-4-yl)piperazin-1-yl)phenyl)-[1,2,4]triazolo[4′,3′:1,6]pyrido[2,3-d]pyrimidin-2-amine] showed an IC50 of 1 to 10 nM. In the case of `C=CC(=O)N1CCN(CCc2nc3c(-c4cc(OC)cc(OC)c4Cl)cc4cnc(NC)nc4n3n2)CC1` [Compound 116, 1-(4-(2-(4-(2-chloro-3,5-dimethoxyphenyl)-8-(methylamino)-[1,2,4]triazolo[1′,5′:1,6]pyrido[2,3-d]pyrimidin-2-yl)ethyl)piperazin-1-yl)prop-2-en-1-one], the IC50 is reported as 10 to 100 nM. Work on `CNC1CCN(c2ccc(Nc3ncc4cc(-c5cc(OC)cc(OC)c5Cl)c5nncn5c4n3)cc2)CC1` [Compound 49, 6-(2-chloro-3,5-dimethoxyphenyl)-N-(4-(4-(methylamino)piperidin-1-yl)phenyl)-[1,2,4]triazolo[4′,3′:1,6]pyrido[2,3-d]pyrimidin-2-amine] yielded an IC50 of under 1 nM.
